Data reported in patent US12011444B2, “N-substituted indole derivatives as PGE2 receptor modulators” (Idorsia Pharmaceuticals Ltd, priority 2015, dated 2024).

Legend:
PTRGER4 (EP4) = PTRGER4 (EP4) (Homo sapiens (Human), UniProt P35408); experiment: hEP4 b-arrestin assay (PathHunter HEK 293 PTGER4 b-arrestin cells); type: cell-based; conditions: antagonistic activity on hEP4; mean where measured multiple times
Outline: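 Antagonist mode: compound is given 15 min at 37 °C, then 20 nM (final) PGE2 for 120 min, in HEK293 cells stably expressing EP4 fused to ProLink and β-arrestin 2 fused to EA. Recruitment read as β-gal luminescence after 1 h reagent at room temperature, as percent of DMSO control.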

PTGER2 (EP2) = PTGER2 (EP2) (Homo sapiens (Human), UniProt P43116); experiment: hEP2 b-arrestin assay (PathHunter HEK 293 PTGER2 b-arrestin cells); type: cell-based; conditions: antagonistic activity on hEP2; mean where measured multiple times
Sequence of PTGER2 (EP2) (P43116 whole entry): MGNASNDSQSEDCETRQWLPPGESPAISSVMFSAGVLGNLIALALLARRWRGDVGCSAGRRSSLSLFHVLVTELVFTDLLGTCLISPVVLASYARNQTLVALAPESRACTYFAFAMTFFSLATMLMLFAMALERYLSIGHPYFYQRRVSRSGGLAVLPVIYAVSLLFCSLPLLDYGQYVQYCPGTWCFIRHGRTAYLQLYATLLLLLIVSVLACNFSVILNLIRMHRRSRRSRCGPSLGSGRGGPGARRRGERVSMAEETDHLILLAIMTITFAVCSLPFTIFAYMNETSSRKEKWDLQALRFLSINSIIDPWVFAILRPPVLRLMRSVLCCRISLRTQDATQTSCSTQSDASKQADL
Outline: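 Readout is β-galactosidase complementation luminescence, expressed as percent of DMSO control (duplicates). PathHunter HEK293 EP2/β-arrestin 2 cells, grown 24 h, received compound for 15 min at 37 °C before a 120 min challenge with PGE2 at 5 μM final, followed by 1 h detection at room temperature.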

Sequence of PTRGER4 (EP4) (P35408 whole entry, looked up, the tested form may be a part): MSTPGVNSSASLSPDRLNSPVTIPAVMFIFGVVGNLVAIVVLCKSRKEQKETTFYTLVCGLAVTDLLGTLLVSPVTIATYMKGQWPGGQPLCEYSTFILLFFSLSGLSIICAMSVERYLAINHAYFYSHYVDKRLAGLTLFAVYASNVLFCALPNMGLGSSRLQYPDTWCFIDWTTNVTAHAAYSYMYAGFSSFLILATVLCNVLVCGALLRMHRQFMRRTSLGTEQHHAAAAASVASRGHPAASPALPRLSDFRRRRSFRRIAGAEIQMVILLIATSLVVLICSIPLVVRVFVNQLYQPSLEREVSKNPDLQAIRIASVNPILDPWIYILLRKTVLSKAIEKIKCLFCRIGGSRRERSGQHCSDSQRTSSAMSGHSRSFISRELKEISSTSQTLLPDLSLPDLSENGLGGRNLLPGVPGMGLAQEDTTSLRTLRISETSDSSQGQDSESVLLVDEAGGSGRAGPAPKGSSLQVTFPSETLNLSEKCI

| SMILES | IC50 (PTRGER4 (EP4)) | IC50 (PTGER2 (EP2)) |
| --- | --- | --- |
| COc1ccc(F)c2c1cc(C)n2CCNc1cc(-c2ccc(-c3ccn[nH]3)cc2)ncn1 [compound 193, [2-(7-Fluoro-4-methoxy-2-methyl-indol-1-yl)-ethyl]-{6-[4-(2H-pyrazol-3-yl)-phenyl]-pyrimidin-4-yl}-amine] | 39 nM | 4 nM |
| COc1cccc2c1cc(C)n2CCNc1cc(-c2ccc(-c3noc(=O)[nH]3)cc2)ncn1 [compound 194, 3-(4-{6-[2-(4-Methoxy-2-methyl-indol-1-yl)-ethylamino]-pyrimidin-4-yl}-phenyl)-4H-[1,2,4]oxadiazol-5-one] | 172 nM | 10 nM |
| Cc1nc(-c2ccc(-c3cc(NCCn4c(C)cc5c(C)ccc(F)c54)ncn3)cc2)cs1 [compound 195] | 534 nM | 260 nM |
| CCN1Cc2cc(-c3cc(NCCn4c(C)cc5c(OC)cccc54)ncn3)ccc2C1=O [compound 197, 2-Ethyl-5-{6-[2-(4-methoxy-2-methyl-indol-1-yl)-ethylamino]-pyrimidin-4-yl}-2,3-dihydro-isoindol-1-one] | 751 nM | 32 nM |
| Cc1cc2c(Cl)ccc(Cl)c2n1CCNc1cc(-c2ccc3[nH]c(C(=O)O)cc3c2)ncn1 [compound 198] | 299 nM | 96 nM |
| COc1cc(F)c(F)c2c1cc(C)n2CCNc1cc(-c2ccc3c(c2)CC(=O)N3)ncn1 [compound 199] | 166 nM | 102 nM |
| Cc1cc(F)cc2c1cc(C)n2CCNc1cc(-c2ccc(-c3cc(O)no3)cc2)ncn1 [compound 200, 5-(4-{6-[2-(6-Fluoro-2,4-dimethyl-indol-1-yl)-ethylamino]-pyrimidin-4-yl}-phenyl)-isoxazol-3-ol] | 111 nM | 37 nM |
| Cc1ccc(Cl)c2c1cc(C)n2CCNc1cc(-c2ccc3[nH]c(C(=O)O)cc3c2)ncn1 [compound 201] | 389 nM | 232 nM |
| COc1ccc(F)c2c1cc(C)n2CCNc1cc(-c2ccc(-c3cnco3)cc2)ncn1 [compound 202, [2-(7-Fluoro-4-methoxy-2-methyl-indol-1-yl)-ethyl]-[6-(4-oxazol-5-yl-phenyl)-pyrimidin-4-yl]-amine] | 105 nM | 16 nM |
| COc1ccc(F)c2c1cc(C)n2CCNc1cc(-c2ccc3c(c2)CN(C)C3=O)ncn1 [compound 204, 5-{6-[2-(7-Fluoro-4-methoxy-2-methyl-indol-1-yl)-ethylamino]-pyrimidin-4-yl}-2-methyl-2,3-dihydro-isoindol-1-one] | 182 nM | 31 nM |
| COc1cc(F)cc2c1cc(C)n2CCNc1cc(-c2ccc(-c3ccns3)cc2)ncn1 [compound 205, [2-(6-Fluoro-4-methoxy-2-methyl-indol-1-yl)-ethyl]-[6-(4-isothiazol-5-yl-phenyl)-pyrimidin-4-yl]-amine] | 334 nM | 44 nM |
| CCN1Cc2cc(-c3cc(NCCn4c(C)cc5c(C)ccc(F)c54)ncn3)ccc2C1=O [compound 206] | 740 nM | 88 nM |
| COc1ccc(F)c2c1cc(C)n2CCNc1cc(-c2ccc(-c3nnc[nH]3)cc2)ncn1 [compound 208, [2-(7-Fluoro-4-methoxy-2-methyl-indol-1-yl)-ethyl]-{6-[4-(4H-[1,2,4]triazol-3-yl)-phenyl]-pyrimidin-4-yl}-amine] | 102 nM | 11 nM |
| CNc1cc(-c2cc(NCCn3c(C)cc4c(C)cc(F)cc43)ncn2)ccc1C(=O)O [compound 209] | 123 nM | 3 nM |
| CCOc1cc(-c2cc(NCCn3c(C)cc4c(C)cc(F)c(Cl)c43)ncn2)ccc1C(=O)O [compound 210] | 991 nM | 472 nM |
| CNc1cc(-c2cc(NCCn3c(C)cc4c(F)ccc(C)c43)ncn2)ccc1C(=O)O [compound 211] | 394 nM | 2 nM |
| CCNc1cc(-c2cc(NCCn3c(C)cc4c(Cl)cccc43)ncn2)ccc1C(=O)O [compound 212] | 173 nM | 1 nM |
| CNc1cc(-c2cc(NCCn3c(C)cc4c(OC)cccc43)ncn2)ccc1C(=O)O [compound 213] | 204 nM | 3 nM |
| COc1c(-c2cc(NCCn3c(C)cc4c(OC)ccc(F)c43)ncn2)csc1C(=O)O [compound 215] | 972 nM | 139 nM |
| CCOc1cc(-c2cc(NCCn3c(C)cc4c(OC)cccc43)ncn2)sc1C(=O)O [compound 216] | 22 nM | 2 nM |
| CSc1cc(-c2cc(NCCn3c(C)cc4c(C)ccc(Cl)c43)ncn2)ccc1C(=O)O [compound 217] | 381 nM | 25 nM |
| Cc1cc(-c2cc(NCCn3c(C)cc4c(C)ccc(F)c43)ncn2)cc(F)c1C(=O)O [compound 218] | 519 nM | 18 nM |
| CCc1cc(-c2cc(NCCn3c(C)cc4c(C)cc(F)cc43)ncn2)ccc1C(=O)O [compound 219] | 454 nM | 41 nM |
| CCc1cc(-c2cc(NCCn3c(C)cc4c(C)ccc(F)c43)ncn2)ccc1C(=O)O [compound 220] | 216 nM | 18 nM |
| CSc1cc(-c2cc(NCCn3c(C)cc4c(Cl)ccc(Cl)c43)ncn2)ccc1C(=O)O [compound 221] | 902 nM | 9 nM |
| Cc1ccc(F)c2c1cc(C)n2CCNc1cc(-c2cc(Cl)c(C(=O)O)c(Cl)c2)ncn1 [compound 222] | 232 nM | 42 nM |
| CCc1cc(-c2cc(NCCn3c(C)cc4c(OC)cccc43)ncn2)ccc1C(=O)O [compound 223] | 702 nM | 8 nM |

| SMILES | IC50 (PTRGER4 (EP4)) | IC50 (PTGER2 (EP2)) |
| --- | --- | --- |
| CCOc1cc(-c2cc(NCCn3c(C)cc4c(C)cc(Cl)cc43)ncn2)sc1C(=O)O [compound 224] | 20 nM | 4 nM |
| CCc1cc(-c2cc(NCCn3c(C)cc4c(OC)ccc(Cl)c43)ncn2)sc1C(=O)O [compound 225] | 124 nM | 25 nM |
| CCOc1cc(-c2cc(NCCn3c(C)cc4c(C)ccc(F)c43)ncn2)sc1C(=O)O [compound 227] | 22 nM | 2 nM |
| CCOc1cc(-c2cc(NCCn3c(C)cc4cc(C)cc(F)c43)ncn2)sc1C(=O)O [compound 228] | 35 nM | 4 nM |
| CCOc1cc(-c2cc(NCCn3c(C)cc4c(C)cc(F)cc43)ncn2)sc1C(=O)O [compound 229] | 26 nM | 2 nM |
| CCc1cc(-c2cc(NCCn3c(C)cc4c(OC)ccc(F)c43)ncn2)sc1C(=O)O [compound 230] | 13 nM | 5 nM |
| CCc1cc(-c2cc(NCCn3c(C)cc4cc(OC)cc(F)c43)ncn2)sc1C(=O)O [compound 231] | 133 nM | 185 nM |
| COc1cc(-c2cc(NCCn3c(C)cc4c(C)cc(F)cc43)ncn2)ccc1C(=O)O [compound 232] | 732 nM | 21 nM |
| COc1ccc(F)c2c1cc(C)n2CCNc1cc(-c2ccc(C(=O)O)c(C)c2)ncn1 [compound 233] | 317 nM | 52 nM |
| CCOc1cc(-c2cc(NCCn3c(C)cc4c(Cl)cccc43)ncn2)ccc1C(=O)O [compound 234] | 249 nM | 3 nM |
| CCOc1cc(-c2cc(NCCn3c(C)cc4c(F)c(F)ccc43)ncn2)sc1C(=O)O [compound 235] | 60 nM | 2 nM |
| CCOc1cc(-c2cc(NCCn3c(C)cc4ccc(Cl)c(Cl)c43)ncn2)sc1C(=O)O [compound 236] | 413 nM | 9 nM |
| CCOc1cc(-c2cc(NCCn3c(C)cc4cc(Cl)cc(F)c43)ncn2)sc1C(=O)O [compound 237] | 68 nM | 13 nM |
| CCOc1cc(-c2cc(NCCn3c(C)cc4c(Cl)cc(Cl)cc43)ncn2)sc1C(=O)O [compound 238] | 40 nM | 5 nM |
| CCOc1cc(-c2cc(NCCn3c(C)cc4c(Cl)cc(F)cc43)ncn2)sc1C(=O)O [compound 239] | 19 nM | 1 nM |
| CCOc1cc(-c2cc(NCCn3c(C)cc4c(Cl)ccc(F)c43)ncn2)sc1C(=O)O [compound 240] | 10 nM | 2 nM |
| CCc1cc(-c2cc(NCCn3c(C)cc4cc(C)cc(F)c43)ncn2)sc1C(=O)O [compound 241] | 128 nM | 32 nM |
| CCc1cc(-c2cc(NCCn3c(C)cc4cc(Cl)cc(F)c43)ncn2)sc1C(=O)O [compound 242] | 216 nM | 111 nM |
| CCNc1cc(-c2cc(NCCn3c(C)cc4c(F)ccc(F)c43)ncn2)ccc1C(=O)O [compound 243] | 281 nM | 2 nM |
| CCNc1cc(-c2cc(NCCn3c(C)cc4c(C)cc(F)cc43)ncn2)ccc1C(=O)O [compound 244] | 86 nM | 2 nM |
| CCNc1cc(-c2cc(NCCn3c(C)cc4c(C)ccc(F)c43)ncn2)ccc1C(=O)O [compound 245] | 71 nM | 9 nM |
| CCNc1cc(-c2cc(NCCn3c(C)cc4c(F)ccc(C)c43)ncn2)ccc1C(=O)O [compound 246] | 507 nM | 2 nM |
| CCNc1cc(-c2cc(NCCn3c(C)cc4cccc(OC)c43)ncn2)ccc1C(=O)O [compound 247] | 681 nM | 32 nM |
| CCOc1cc(-c2cc(NCCn3c(C#N)cc4c(C)cc(F)cc43)ncn2)sc1C(=O)O [compound 249] | 9 nM | 3 nM |
| CNc1cc(-c2cc(NCCn3c(C)cc4c(OC)ccc(Cl)c43)ncn2)ccc1C(=O)O [compound 250] | 103 nM | 3 nM |
| CNc1cc(-c2cc(NCCn3c(C)cc4c(OC)ccc(F)c43)ncn2)ccc1C(=O)O [compound 251] | 37 nM | 6 nM |
| CNc1cc(-c2cc(NCCn3c(C)cc4c(F)ccc(OC)c43)ncn2)ccc1C(=O)O [compound 252] | 660 nM | 57 nM |
